In PubChem BioAssay AID1053172 (The Scripps Research Institute Molecular Screening Center, 2014):
Calls of active or inactive are those of the source. How the calls were made is not given here.

The molecules below were run against HIV-1 integrase / human LEDGF/p75 complex (assay: inhibitors of HIV-1 IN-LEDGF/p75 DNA integration, dose response, biochemical, TR-FRET (AID 1053172)).
In the case of `COC(=O)C1CCN(C(=O)c2cc(-c3ccco3)nc3ccccc23)CC1`, the IC50 is reported as 5920 nM. With `O=C(O)COc1ccc2c(c1)O/C(=C\c1ccco1)C2=O` the IC50 was 1610 nM. Work on `O=C(O)c1ccc(NC2=C/C(=N/S(=O)(=O)c3cccs3)c3ccccc3C2=O)cc1` yielded an IC50 of 996 nM. Molecule `O=C(NN1C(=O)/C(=C/C=C/c2ccco2)SC1=S)c1ccncc1` has an IC50 of 1200 nM. In the case of `O=Cc1ccc2oc3nc4n(c(=O)c3c(=O)c2c1)CCCS4`, the IC50 is reported as 1810 nM. `S=C(Nc1ccc(N2CCOCC2)cc1)Nc1ccc2nc(-c3ccco3)c(-c3ccco3)nc2c1` was tested, and the IC50 was > 36500 nM (inactive). `NC(=O)CC1Nc2cccc3cccc(c23)NC1=O` (configuration not stated) was tested, and the IC50 was > 36500 nM (inactive). With `C=C(C)C(=O)Nc1cccc(C2=NOC3(C2)C[C@@H](C(N)=O)N(C(=O)C2(C)CC2)C3)c1` (some centres not stated) the IC50 was 2390 nM. `Oc1cccc(CN2CCOCC2)c1O` was tested, and the IC50 was “inactive”. `O=c1c(OC2OC(CO)C(O)C(O)C2OC2OC(CO)C(O)C(O)C2O)c(-c2ccc(O)cc2)oc2cc(O)cc(O)c12` (configuration not stated) gave an IC50 of 8050 nM. `O=[N+]([O-])c1ccccc1NC(=S)N/N=C/c1ccc(O)c(O)c1` was tested, and the IC50 was 2510 nM. Molecule `O=C(O)c1ccc2nc(-c3ccco3)c(-c3ccco3)nc2c1` has an IC50 of 1920 nM. Molecule `N#C/C(=C\c1ccc(O)c(O)c1)C(=O)Nc1cccc2ncccc12` has an IC50 of 1070 nM. `NC1=C(Cl)C(=O)c2ccc(S(N)(=O)=O)cc2C1=O` was tested, and the IC50 was 429 nM. In the case of `CN(C)C1C(=O)C(C(N)=O)=C(O)C2(O)C(=O)C3=C(O)c4c(O)cccc4C(C)(O)C3C(O)C12` (configuration not stated), the IC50 is reported as “inactive”. With `CCCCCn1c(NC(=O)c2ccco2)c(S(=O)(=O)c2ccc(C)cc2)c2nc3ccccc3nc21` the IC50 was “inactive”. `C=C(C)C(=O)Nc1cccc(C2=NOC3(C2)C[C@@H](C(N)=O)N(C(=O)C(=C)C)C3)c1` (some centres not stated) gave an IC50 of 5920 nM. With `O=S(=O)(c1cc(O)ccc1O)c1cccc2c(S(=O)(=O)c3cc(O)ccc3O)cccc12` the IC50 was “inactive”. `CC(=O)c1ccc(NC(=O)CSc2nnc(-c3ccco3)c(-c3ccco3)n2)cc1` showed an IC50 of 6380 nM. `CCN=c1scc(C)n1/N=C/c1ccc(O)c(O)c1O` showed an IC50 of 5610 nM. With `Cc1ccc(N=C2NC(=O)/C(=C/C=C/c3ccco3)S2)cc1C` the IC50 was 7350 nM. With `Oc1ccc(/C=N/N=C(c2ccccc2)c2ccccc2)c(O)c1O` the IC50 was 1080 nM. Work on `COc1c(O)cc2oc(-c3ccc(O)c(O)c3)cc(=O)c2c1O` yielded an IC50 of 1840 nM. In the case of `O=C1CCCC(O)=C1N=Nc1ccc(C(=O)O)cc1`, the IC50 is reported as 2410 nM. With `Cc1cccc(N=C2NC(=O)/C(=C/C=C/c3ccco3)S2)c1C` the IC50 was 2990 nM. Work on `O=C1C=C(O)c2c(O)cc(O)c(O)c2C1=O` yielded an IC50 of 742 nM. `Cc1ccc(NC2=CC(=O)C(=O)c3ccccc32)cc1` was tested, and the IC50 was 8860 nM. `COc1cc(-c2cc(=O)c3c(O)c(OC)c(OC)c(O)c3o2)ccc1O` gave an IC50 of 4960 nM. `Cc1cc(C(=O)N/N=C/c2ccc(O)c([N+](=O)[O-])c2)c(C)n1-c1ccc(F)cc1` was tested, and the IC50 was “inactive”. In the case of `Cc1cc2nc3ccc(N(C)C)cc3nc2cc1N`, the IC50 is reported as > 36600 nM (inactive). In the case of `O=c1c(-c2c(O)cc(O)c3c(=O)cc(-c4ccc(O)cc4)oc23)c(-c2ccc(O)cc2)oc2cc(O)cc(O)c12`, the IC50 is reported as 4230 nM. `NS(=O)(=O)c1ccc(N/N=C/c2ccc(O)c(O)c2O)c([N+](=O)[O-])c1` was tested, and the IC50 was 1240 nM. Molecule `Nc1ccc2cc3ccc(N)cc3nc2c1` has an IC50 of 4460 nM. For `C=C1c2cccc(O)c2C(O)=C2C(=O)[C@]3(O)C(O)=C(C(N)=O)C(=O)[C@@H](N(C)C)[C@@H]3[C@@H](O)[C@H]12`, the IC50 was 2720 nM. Molecule `O=c1cc(-c2ccc(O)c(O)c2)oc2cc(O)c(C3OC(CO)C(O)C(O)C3O)c(O)c12` (configuration not stated) has an IC50 of 1550 nM. With `O=C(N/N=C\C=C\c1ccc([N+](=O)[O-])o1)c1cccs1` the IC50 was > 36500 nM (inactive). `O=C(Nc1nc(-c2ccco2)c(-c2ccco2)s1)C1CC(=O)N(c2ccc3c(c2)OCCO3)C1` (configuration not stated) was tested, and the IC50 was “inactive”. `c1coc(-c2nnc(-c3ccco3)nn2)c1` showed an IC50 of 1750 nM. With `Cc1ccc(-c2nn(-c3ccccc3)cc2/C=C2\SC(=S)N(CCCCCC(=O)O)C2=O)o1` the IC50 was “inactive”. With `O=C(COC(=O)c1c2c(nc3ccccc13)/C(=C\c1ccco1)CC2)NC1CCCC1` the IC50 was 6440 nM. In the case of `O=S(=O)(O)c1cc(O)c2cc(Nc3ccccc3)ccc2c1`, the IC50 is reported as 2730 nM. For `COc1ccccc1OCC(=O)N/N=C/C=C/c1ccc([N+](=O)[O-])o1`, the IC50 was > 36500 nM (inactive). For `COc1ccc(/C=C/C(=O)N2CCCc3ccccc32)cc1`, the IC50 was > 36600 nM (inactive). `O=C(CCCN1C(=O)/C(=C/c2ccco2)SC1=S)Nc1ccccc1C(=O)O` was tested, and the IC50 was 8370 nM. `COc1cc(C)cc(C(=O)O)c1C1=C(O)c2cccc(O)c2C(=O)C1=O` was tested, and the IC50 was 4870 nM. Molecule `CC(C)(CS(=O)(=O)[O-])NC(=O)CC[N+](C)(C)CCO` has an IC50 of 3060 nM. `O=C(CSc1nc2ccccc2o1)N/N=C/c1ccc(O)c(O)c1` showed an IC50 of 1930 nM. `O=C1CC(=O)N(Cc2ccco2)C(=O)N1` gave an IC50 of 691 nM. With `Nc1c(C(=O)N/N=C/c2cccnc2)oc2nc(-c3ccco3)cc(-c3ccco3)c12` the IC50 was > 36600 nM (inactive). `O=C(NN1C(=O)/C(=C/C=C/c2ccco2)SC1=S)c1ccccc1O` showed an IC50 of 1850 nM. `CC1OC(Oc2c(-c3cc(O)c(O)c(O)c3)oc3cc(O)cc(O)c3c2=O)C(O)C(O)C1O` (configuration not stated) gave an IC50 of 3090 nM. Molecule `CC1=NN(c2cccc(C(=O)O)c2)C(=O)/C1=C\C=C\c1ccco1` has an IC50 of 734 nM.
